{"source": "patent US20130236568A1", "about": "“PHOSPHAPLATINS HAVING ANTI-ANGIOGENIC, ANTI-METASTATIC, AND PRO-APOPTOTIC PROPERTIES AND USES THEREOF” (Ohio University, priority 2011, published 2013)", "type_in_all_cases": "cell-based, human", "key": {"[1]": {"test_system": "VEGFR2 gene", "test": "Quantitative real-time PCR, VEGFR2 gene expression in A2780 cells", "procedure": "(§1) Evaluations of selected gene expressions in Human Umbilical Vein Endothelial Cells (HUVEC) and Human Ovarian Cancer Cells by quantitative reverse transcriptase polymerase chain reaction (PCR)\n(§2) Quantitative real-time PCR experiments were performed to estimate the expression of a selection of targeted genes. HUVEC cells (Lonza Walkersville, Frederick, Md.) were cultured on 0.1% gelatin-coated petri dishes by following standard protocols recommended by the vendor in a humidified incubator by maintaining 5% CO2 at 37° C. Human epithelial ovarian cancer cells (A2780) and cisplatin-resistant cells (A2780/C30) were cultured in RPMI 1640 with or without cisplatin (7 μM) and pyrodach-4 (180 μM) for 0, 3, 12 and 24 hours. […] HUVECs were treated with or without cisplatin (7 μM) or pyrodach-4 (90 or 180 μM) for various durations ranging from 1 hr. to 6 hrs.\n(§3) Both treated and untreated cancer cells were maintained in RPMI 1640 medium with 10% fetal bovine serum, 2 μmol L-glutamine, 100 units/mL penicillin-streptomycin and 0.25 units/mL insulin solution, at 37° C. with 5% CO2. RNA was isolated from both the treated and untreated cells. […] The quantity and purity of RNA were determined by UV spectroscopy (NanoDrop 2000 Thermo Scientific, Wilmington, Del.). A minimum absorbance ratio index (ratio of the absorbance measured at 260 nm over that at 280 nm) of 1.9 was used as an acceptable purity. […] The target gene was labeled with a blue dye (FAM, absorbance: 494 nm, emission: 518 nm) while the reference gene was tagged with a green dye (VIC, absorbance: 538 nm, emission: 554 nm). The cDNA concentrations were selected such that the threshold cycle (Ct) values for the target genes were between 17 and 32, most sensitive for the fluorescence detection by ABI StepOnePlus™ instrument used for the measurements.\n(§4) The threshold cycle number (Ct), the point at which the fluorescence of the qPCR reaction just exceeds the threshold fluorescence of the detection system, was determined. […]"}, "[2]": {"test_system": "VEGFR2 gene", "test": "Quantitative real-time PCR, VEGFR2 gene expression in A2780/C30 cells", "procedure": "as §1, §2, §3, §4"}, "[3]": {"test_system": "PTEN", "test": "Quantitative real-time PCR, PTEN expression in A2780 cells", "conditions": "for Normalized expression of PTEN: control = 1.0", "procedure": "as §1, §2, §3, §4"}}, "data": [{"substance": "trans-(±)-1,2-cyclohexanediamine-trans-dihydroxo(pyrophosphato) platinum(IV) [Pyrodach-4]", "values": [{"measurement": "Normalized expression of VEGFR2 gene", "setting": "[1]; A2780 (cisplatin-sensitive), positive = manifold increase, negative = relative decrease vs untreated cells, cisplatin 7 μM, pyrodach-4 180 μM", "result": "−2.0"}, {"measurement": "Suppression of VEGFR-2 gene expression", "setting": "[1]; cisplatin-sensitive human ovarian cancer cells", "result": "≤ 50", "unit": "%"}, {"measurement": "Normalized expression of VEGFR2 gene", "setting": "[2]; A2780/C30 (cisplatin-resistant), positive = manifold increase, negative = relative decrease vs untreated cells, cisplatin 7 μM, pyrodach-4 180 μM", "result": "−2.0"}, {"measurement": "Suppression of VEGFR-2 gene expression", "setting": "[2]; cisplatin-resistant human ovarian cancer cells", "result": "≤ 50", "unit": "%"}, {"measurement": "Expression of the PTEN gene compared to control", "setting": "[3]", "result": 5.5, "unit": "fold"}, {"measurement": "Normalized expression of PTEN", "setting": "[3]; pyrodach-4 alone", "result": 5.5}, {"measurement": "Normalized expression of PTEN", "setting": "[3]; pyrodach-4 in the presence of p53 inhibitor PTF-α", "result": 0.8}]}]}
